Test results: ChEMBL document CHEMBL4715697, “Synthesis and biological activity of benzamide DNA minor groove binders” (2016)

Assays:
Assay type in all cases: functional
HL-60(TB) = experiment: Growth inhibition of human HL-60(TB) cells assessed as cell growth at 100 uM incubated for 48 hrs by sulforhodamine B assay relative to control; settings: read-out: Activity
COLO 205 = experiment: Growth inhibition of human COLO 205 cells assessed as cell growth at 100 uM incubated for 48 hrs by sulforhodamine B assay relative to control; settings: read-out: Activity
NCI-H522 = experiment: Growth inhibition of human NCI-H522 cells incubated for 48 hrs by sulforhodamine B assay
T47D [1] = experiment: Growth inhibition of human T47D cells assessed as cell growth at 100 uM incubated for 48 hrs by sulforhodamine B assay relative to control; settings: read-out: Activity
SNB-75 = experiment: Growth inhibition of human SNB-75 cells assessed as cell growth at 1 uM incubated for 48 hrs by sulforhodamine B assay relative to control; settings: read-out: Activity
UACC-257 = experiment: Growth inhibition of human UACC-257 cells assessed as cell growth at 1 uM incubated for 48 hrs by sulforhodamine B assay relative to control; settings: read-out: Activity
Malme-3M [2] = experiment: Growth inhibition of human Malme-3M cells assessed as cell growth at 0.01 uM incubated for 48 hrs by sulforhodamine B assay relative to control; settings: read-out: Activity
SF-539 [3] = experiment: Growth inhibition of human SF-539 cells assessed as cell growth at 0.01 uM incubated for 48 hrs by sulforhodamine B assay relative to control; settings: read-out: Activity
UACC-62 [4] = experiment: Growth inhibition of human UACC-62 cells assessed as cell growth at 0.01 uM incubated for 48 hrs by sulforhodamine B assay relative to control; settings: read-out: Activity
NCI/ADR-RES = experiment: Growth inhibition of human NCI/ADR-RES cells assessed as cell growth at 1 uM incubated for 48 hrs by sulforhodamine B assay relative to control; settings: read-out: Activity
MDA-MB-231 = experiment: Growth inhibition of human MDA-MB-231 cells assessed as cell growth at 1 uM incubated for 48 hrs by sulforhodamine B assay relative to control; settings: read-out: Activity
A549 = experiment: Growth inhibition of human A549/ATCC cells incubated for 48 hrs by sulforhodamine B assay
SK-MEL-28 = experiment: Growth inhibition of human SK-MEL-28 cells assessed as cell growth at 0.1 uM incubated for 48 hrs by sulforhodamine B assay relative to control; settings: read-out: Activity
MDA-MB-435 = experiment: Growth inhibition of human MDA-MB-435 cells incubated for 48 hrs by sulforhodamine B assay
Malme-3M [5] = experiment: Growth inhibition of human Malme-3M cells assessed as cell growth at 100 uM incubated for 48 hrs by sulforhodamine B assay relative to control; settings: read-out: Activity
T47D [6] = experiment: Growth inhibition of human T47D cells assessed as cell growth at 1 uM incubated for 48 hrs by sulforhodamine B assay relative to control; settings: read-out: Activity
M14 = experiment: Growth inhibition of human M14 cells assessed as cell growth at 0.1 uM incubated for 48 hrs by sulforhodamine B assay relative to control; settings: read-out: Activity
OVCAR-4 [7] = experiment: Growth inhibition of human OVCAR-4 cells assessed as cell growth at 0.01 uM incubated for 48 hrs by sulforhodamine B assay relative to control; settings: read-out: Activity
CCRF-CEM [8] = experiment: Growth inhibition of human CCRF-CEM cells incubated for 48 hrs by sulforhodamine B assay
BT-549 = experiment: Growth inhibition of human BT-549 cells assessed as cell growth at 100 uM incubated for 48 hrs by sulforhodamine B assay relative to control; settings: read-out: Activity
UO-31 = experiment: Growth inhibition of human UO-31 cells assessed as cell growth at 1 uM incubated for 48 hrs by sulforhodamine B assay relative to control; settings: read-out: Activity
UACC-62 [9] = experiment: Growth inhibition of human UACC-62 cells assessed as cell growth at 0.1 uM incubated for 48 hrs by sulforhodamine B assay relative to control; settings: read-out: Activity
SK-MEL-5 [10] = experiment: Growth inhibition of human SK-MEL-5 cells assessed as cell growth at 0.01 uM incubated for 48 hrs by sulforhodamine B assay relative to control; settings: read-out: Activity
SK-MEL-5 [11] = experiment: Growth inhibition of human SK-MEL-5 cells assessed as cell growth at 1 uM incubated for 48 hrs by sulforhodamine B assay relative to control; settings: read-out: Activity
HT-29 = experiment: Growth inhibition of human HT-29 cells assessed as cell growth at 0.1 uM incubated for 48 hrs by sulforhodamine B assay relative to control; settings: read-out: Activity
Hs-578T = experiment: Growth inhibition of human Hs-578T cells assessed as cell growth at 100 uM incubated for 48 hrs by sulforhodamine B assay relative to control; settings: read-out: Activity
HOP-62 = experiment: Growth inhibition of human HOP-62 cells assessed as cell growth at 0.1 uM incubated for 48 hrs by sulforhodamine B assay relative to control; settings: read-out: Activity
SF-539 [12] = experiment: Growth inhibition of human SF-539 cells assessed as cell growth at 100 uM incubated for 48 hrs by sulforhodamine B assay relative to control; settings: read-out: Activity
SK-MEL-5 [13] = experiment: Growth inhibition of human SK-MEL-5 cells assessed as cell growth at 0.1 uM incubated for 48 hrs by sulforhodamine B assay relative to control; settings: read-out: Activity
CCRF-CEM [14] = experiment: Growth inhibition of human CCRF-CEM cells assessed as cell growth at 0.01 uM incubated for 48 hrs by sulforhodamine B assay relative to control; settings: read-out: Activity
CAKI-1 = experiment: Growth inhibition of human CAKI-1 cells assessed as cell growth at 0.1 uM incubated for 48 hrs by sulforhodamine B assay relative to control; settings: read-out: Activity
NCI-H23 = experiment: Growth inhibition of human NCI-H23 cells assessed as cell growth at 0.1 uM incubated for 48 hrs by sulforhodamine B assay relative to control; settings: read-out: Activity
MDA-MB-468 = experiment: Growth inhibition of human MDA-MB-468 cells incubated for 48 hrs by sulforhodamine B assay
OVCAR-4 [15] = experiment: Growth inhibition of human OVCAR-4 cells assessed as cell growth at 0.1 uM incubated for 48 hrs by sulforhodamine B assay relative to control; settings: read-out: Activity
ACHN = experiment: Growth inhibition of human ACHN cells incubated for 48 hrs by sulforhodamine B assay
[16] = read-out: LC50 (the source's name)
[17] = read-out: pLC50 (the source's name) (converted)

CC(=O)Nc1cc(CCl)cc(NC(=O)c2ccc(C(=O)Nc3cccc(NC(=O)CCCN(C)C)c3)cc2)c1
growth at 100 µM (HL-60(TB)): 90%
growth at 100 µM (COLO 205): 100%
GI50 (NCI-H522; read-out: GI50): > 100 µM
CC50 (NCI-H522; [16]): > 100 µM
TGI (NCI-H522; read-out: TGI): > 100 µM
GI50 (NCI-H522; read-out: pGI50 (converted)): > 100 µM
CC50 (NCI-H522; [17]): > 100 µM
TGI (NCI-H522; read-out: pTGI): > 100 µM
growth at 100 µM (T47D [1]): 71%
growth at 1 µM (SNB-75): 78%
growth at 1 µM (UACC-257): 95%
growth at 0.01 µM (Malme-3M [2]): 99%
growth at 0.01 µM (SF-539 [3]): 98%
growth at 0.01 µM (UACC-62 [4]): 100%
growth at 1 µM (NCI/ADR-RES): 95%
growth at 1 µM (MDA-MB-231): 104%
GI50 (A549; read-out: GI50): > 100 µM
CC50 (A549; [16]): > 100 µM
TGI (A549; read-out: TGI): > 100 µM
GI50 (A549; read-out: pGI50 (converted)): > 100 µM
CC50 (A549; [17]): > 100 µM
TGI (A549; read-out: pTGI): > 100 µM
growth at 0.1 µM (SK-MEL-28): 91%
GI50 (MDA-MB-435; read-out: GI50): > 100 µM
LC50 (50% lethal concentration) (MDA-MB-435; read-out: LC50): > 100 µM
TGI (MDA-MB-435; read-out: TGI): > 100 µM
GI50 (MDA-MB-435; read-out: pGI50 (converted)): > 100 µM
LC50 (50% lethal concentration) (MDA-MB-435; read-out: pLC50 (converted)): > 100 µM
TGI (MDA-MB-435; read-out: pTGI): > 100 µM
growth at 100 µM (Malme-3M [5]): 80%
growth at 1 µM (T47D [6]): 94%
growth at 0.1 µM (M14): 102%
growth at 0.01 µM (OVCAR-4 [7]): 99%
GI50 (CCRF-CEM [8]; read-out: GI50): 22.4 µM
CC50 (CCRF-CEM [8]; [16]): 78.2 µM
TGI (CCRF-CEM [8]; read-out: TGI): 41.8 µM
GI50 (CCRF-CEM [8]; read-out: pGI50 (converted)): 22.4 µM
CC50 (CCRF-CEM [8]; [17]): 77.6 µM
TGI (CCRF-CEM [8]; read-out: pTGI (converted)): 41.7 µM
growth at 100 µM (BT-549): 94%
growth at 1 µM (UO-31): 97%
growth at 0.1 µM (UACC-62 [9]): 103%
growth at 0.01 µM (SK-MEL-5 [10]): 96%
growth at 1 µM (SK-MEL-5 [11]): 93%
growth at 0.1 µM (HT-29): 101%
growth at 100 µM (Hs-578T): 107%
growth at 0.1 µM (HOP-62): 104%
growth at 100 µM (SF-539 [12]): 112%
growth at 0.1 µM (SK-MEL-5 [13]): 92%
growth at 0.01 µM (CCRF-CEM [14]): 107%
growth at 0.1 µM (CAKI-1): 98%
growth at 0.1 µM (NCI-H23): 98%
GI50 (MDA-MB-468; read-out: GI50): > 100 µM
CC50 (MDA-MB-468; [16]): > 100 µM
TGI (MDA-MB-468; read-out: TGI): > 100 µM
GI50 (MDA-MB-468; read-out: pGI50 (converted)): > 100 µM
CC50 (MDA-MB-468; [17]): > 100 µM
TGI (MDA-MB-468; read-out: pTGI): > 100 µM
growth at 0.1 µM (OVCAR-4 [15]): 94%
GI50 (ACHN; read-out: GI50): > 100 µM
CC50 (ACHN; [16]): > 100 µM
TGI (ACHN; read-out: TGI): > 100 µM
GI50 (ACHN; read-out: pGI50 (converted)): > 100 µM
CC50 (ACHN; [17]): > 100 µM
TGI (ACHN; read-out: pTGI): > 100 µM
